PubChem BioAssay (NCI)
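Assay format: 96-well plates, 48-hour exposure. GI50 marks 50% less growth. TGI denotes the concentration required for complete inhibition of growth.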

Experiments:
Assay in all cases: DTP human tumour cell line panel, 48 h
ACHN renal = tested on: ACHN renal
TK-10 renal = tested on: TK-10 renal
NCI-H460 lung = tested on: NCI-H460 lung
SNB-75 CNS = tested on: SNB-75 CNS
MDA-MB-468 breast = tested on: MDA-MB-468 breast
SNB-19 CNS = tested on: SNB-19 CNS
A549 NSCLC = tested on: A549 NSCLC
OVCAR-4 ovarian = tested on: OVCAR-4 ovarian
A498 renal = tested on: A498 renal
COLO 205 colon = tested on: COLO 205 colon
SK-OV-3 ovarian = tested on: SK-OV-3 ovarian
DU-145 prostate = tested on: DU-145 prostate
K-562 leukemia = tested on: K-562 leukemia
IGROV1 ovarian = tested on: IGROV1 ovarian
RXF 393 renal = tested on: RXF 393 renal
UO-31 renal = tested on: UO-31 renal
RPMI-8226 leukemia = tested on: RPMI-8226 leukemia
HL-60(TB) leukemia = tested on: HL-60(TB) leukemia
MALME-3M melanoma = tested on: MALME-3M melanoma
SF-295 CNS = tested on: SF-295 CNS
HCT-15 colon = tested on: HCT-15 colon
NCI-H226 lung = tested on: NCI-H226 lung
HOP-92 NSCLC = tested on: HOP-92 NSCLC
UACC-62 melanoma = tested on: UACC-62 melanoma
M14 melanoma = tested on: M14 melanoma
T-47D breast = tested on: T-47D breast
HCC-2998 colon = tested on: HCC-2998 colon
OVCAR-8 ovarian = tested on: OVCAR-8 ovarian
SN12C renal = tested on: SN12C renal
MDA-MB-435 = tested on: MDA-MB-435
SF-539 CNS = tested on: SF-539 CNS
SK-MEL-5 melanoma = tested on: SK-MEL-5 melanoma
HS 578T breast = tested on: HS 578T breast
MDA-MB-231 breast = tested on: MDA-MB-231 breast
EKVX NSCLC = tested on: EKVX NSCLC
NCI-H23 lung = tested on: NCI-H23 lung
LOX IMVI melanoma = tested on: LOX IMVI melanoma
KM12 colon = tested on: KM12 colon
HOP-62 NSCLC = tested on: HOP-62 NSCLC
HT29 colon = tested on: HT29 colon
NCI/ADR-RES ovarian = tested on: NCI/ADR-RES ovarian
BT-549 breast = tested on: BT-549 breast
SK-MEL-2 melanoma = tested on: SK-MEL-2 melanoma
PC-3 prostate = tested on: PC-3 prostate
SR leukemia = tested on: SR leukemia
MOLT-4 leukemia = tested on: MOLT-4 leukemia
UACC-257 melanoma = tested on: UACC-257 melanoma
CCRF-CEM leukemia = tested on: CCRF-CEM leukemia
OVCAR-3 ovarian = tested on: OVCAR-3 ovarian
SW-620 colon = tested on: SW-620 colon
786-0 renal = tested on: 786-0 renal
OVCAR-5 ovarian = tested on: OVCAR-5 ovarian
SK-MEL-28 melanoma = tested on: SK-MEL-28 melanoma
U251 CNS = tested on: U251 CNS
NCI-H522 lung = tested on: NCI-H522 lung
MCF7 breast = tested on: MCF7 breast
HCT-116 colon = tested on: HCT-116 colon
CAKI-1 renal = tested on: CAKI-1 renal
SF-268 CNS = tested on: SF-268 CNS

## COc1ccc(N=Nc2c(N)nn3c(-c4cc5cc(Br)ccc5oc4=O)ccnc23)cc1
ACHN renal
  GI50: 2.52 µM
  TGI: 7.17 µM
TK-10 renal
  GI50: 7.89 µM
  TGI: 24.8 µM
NCI-H460 lung
  GI50: 2.96 µM
  TGI: 11.1 µM
SNB-75 CNS
  GI50: 1.73 µM
  TGI: 5.34 µM
MDA-MB-468 breast
  GI50: 1.86 µM
  TGI: 6.2 µM
SNB-19 CNS
  GI50: 4.05 µM
  TGI: 16.3 µM
A549 NSCLC
  GI50: 3.7 µM
  TGI: 16.9 µM
OVCAR-4 ovarian
  GI50: 3.69 µM
  TGI: 19.3 µM
A498 renal
  GI50: 2.64 µM
  TGI: 9.09 µM
COLO 205 colon
  GI50: 6.15 µM
  TGI: 52.3 µM
SK-OV-3 ovarian
  GI50: 3.67 µM
  TGI: 10.7 µM
DU-145 prostate
  GI50: 5.43 µM
  TGI: > 100 µM
K-562 leukemia
  GI50: 11.1 µM
  TGI: > 100 µM
IGROV1 ovarian
  GI50: 6.28 µM
  TGI: 22.8 µM
RXF 393 renal
  GI50: 2.34 µM
  TGI: 7 µM
UO-31 renal
  GI50: 3.33 µM
  TGI: 15.4 µM
RPMI-8226 leukemia
  GI50: 10.9 µM
  TGI: > 100 µM
HL-60(TB) leukemia
  GI50: > 100 µM
  TGI: > 100 µM
MALME-3M melanoma
  GI50: 3 µM
  TGI: 11.6 µM
SF-295 CNS
  GI50: 2.7 µM
  TGI: 8.53 µM
HCT-15 colon
  GI50: 4.63 µM
  TGI: 79.8 µM
NCI-H226 lung
  GI50: 3.72 µM
  TGI: 14.5 µM
HOP-92 NSCLC
  GI50: 2.48 µM
  TGI: 7.25 µM
UACC-62 melanoma
  GI50: 2.98 µM
  TGI: 12.1 µM
M14 melanoma
  GI50: 12.5 µM
  TGI: > 100 µM
T-47D breast
  GI50: 3.12 µM
  TGI: 13.5 µM
HCC-2998 colon
  GI50: 4.63 µM
  TGI: 23.6 µM
OVCAR-8 ovarian
  GI50: 2.93 µM
  TGI: 11.1 µM
SN12C renal
  GI50: 3.21 µM
  TGI: 14.1 µM
MDA-MB-435
  GI50: 7.87 µM
  TGI: > 100 µM
SF-539 CNS
  GI50: 2.54 µM
  TGI: 6.26 µM
SK-MEL-5 melanoma
  GI50: 3.56 µM
  TGI: 13.6 µM
HS 578T breast
  GI50: 3.08 µM
  TGI: > 100 µM
MDA-MB-231 breast
  GI50: 2.9 µM
  TGI: 10.1 µM
EKVX NSCLC
  GI50: 9.79 µM
  TGI: 35.5 µM
NCI-H23 lung
  GI50: 2.98 µM
  TGI: 10.1 µM
LOX IMVI melanoma
  GI50: 4.72 µM
  TGI: 16.4 µM
KM12 colon
  GI50: 4.17 µM
  TGI: > 100 µM
HOP-62 NSCLC
  GI50: 2.09 µM
  TGI: 5.21 µM
HT29 colon
  GI50: 3.51 µM
  TGI: > 100 µM
NCI/ADR-RES ovarian
  GI50: 3.42 µM
  TGI: 13.1 µM
BT-549 breast
  GI50: 4.38 µM
  TGI: 14.8 µM
SK-MEL-2 melanoma
  GI50: 4.01 µM
  TGI: 18.2 µM
PC-3 prostate
  GI50: 4.56 µM
  TGI: 71.5 µM
SR leukemia
  GI50: 99.7 µM
  TGI: > 100 µM
MOLT-4 leukemia
  GI50: > 100 µM
  TGI: > 100 µM
UACC-257 melanoma
  GI50: 7.3 µM
  TGI: 32 µM
CCRF-CEM leukemia
  GI50: > 100 µM
  TGI: > 100 µM
OVCAR-3 ovarian
  GI50: 3.85 µM
  TGI: > 100 µM
SW-620 colon
  GI50: 5.86 µM
  TGI: 59.6 µM
786-0 renal
  GI50: 2.36 µM
  TGI: 5.9 µM
OVCAR-5 ovarian
  GI50: 4.86 µM
  TGI: 33.8 µM
SK-MEL-28 melanoma
  GI50: 4.78 µM
  TGI: 19 µM
U251 CNS
  GI50: 1.89 µM
  TGI: 4.24 µM
NCI-H522 lung
  GI50: 2.07 µM
  TGI: 6.43 µM
MCF7 breast
  GI50: 3.5 µM
  TGI: 16.4 µM
HCT-116 colon
  GI50: 3.69 µM
  TGI: 12.4 µM
CAKI-1 renal
  GI50: 3.47 µM
  TGI: 15.5 µM
SF-268 CNS
  GI50: 3.72 µM
  TGI: 20 µM
